In paper PMC12440375 (Biochemistry, 2025):
Like-named read-outs stand apart in the source and are kept apart here.

Assays:
EmrE [1] = biological target: T1, EmrE (Escherichia coli, UniProt P23895, K22A); test: TROSY-HSQC NMR; assay type: binding
T1 sequence (P23895 1-110 K22A): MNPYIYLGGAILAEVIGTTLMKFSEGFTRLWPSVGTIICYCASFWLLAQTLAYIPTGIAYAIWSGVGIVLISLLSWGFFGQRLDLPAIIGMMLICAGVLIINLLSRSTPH

EmrE [2] = biological target: T2, EmrE (Escherichia coli, UniProt P23895, K22R); test: fluorescence polarization; assay type: binding
T2 sequence (P23895 1-110 K22R): T1 sequence (P23895 1-110 K22A)

EmrE [3] = biological target: T1, EmrE; test: fluorescence polarization; assay type: binding
EmrE [4] = biological target: T3, EmrE (Escherichia coli, UniProt P23895); test: fluorescence polarization; assay type: binding
T3 sequence (P23895 1-110): T1 sequence (P23895 1-110 K22A)

native MS [5] = biological target: the molecule itself; test: native MS
native MS [6] = biological target: the molecule itself; test: native MS; remark: listed apart in the source

Molecule: c1ccc([P+](c2ccccc2)(c2ccccc2)c2ccccc2)cc1 [tetraphenylphosphonium bromide]
- TROSY-HSQC NMR (EmrE [1]): a portion of the drug-free K22A-EmrE was saturated with the substrate tetraphenylphosphonium bromide (TPP+)

Molecule: CC1=CC(C)=[N+]2C1=C(c1ccc3c(c1)OCCOCCOCCOCCOCCO3)c1c(C)cc(C)n1[B-]2(F)F [benzo[18]crown-6 BODIPY, 10-(2,3,5,6,8,9,11,12,14,15-decahydrobenzo[b][1,4,7,10,13,16]Hexaoxacyclooctadecin-18-yl)-5,5-difluoro-1,3,7,9-tetramethyl-5H-4l4,5l4-dipyrrolo[1,2-c:2′,1′-f][1,3,2]diazaborinine]
- Kd (EmrE [2]): 226 nM
- Kd (EmrE [3]): 154 nM
- Kd (EmrE [4]): 97.4 nM

B1: EmrE (WT-EmrE), multidrug efflux pump from Escherichia coli (natural protein)
chain: T1 sequence (P23895 1-110 K22A)
- stoichiometry N (native MS [5]): 2

B2: Saposin A (natural protein)
chain: SLPCDICKDVVTAAGDMLKDNATEEEILVYLEKTCDWLPKPNMSASCKEIVDSYLPVILDIIKGEMSRPGEVCSALNLCESLQ
- stoichiometry N (native MS [6]): 4
- stoichiometry N (native MS [5]): 2
